Reference: the supplement of paper PMC11451515

Key:
Conditions in all cases: 48 h
SEM cells [1] = experiment: AUC of viability dose-response curve (% viability x log10 dose units); higher = less sensitive
Summary of the method: (§1)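 Leukemia cells adapted to each medium were seeded at 500 or 1000 cells/well in 1536-well plates and dosed with library compounds in DMSO at 11 threefold doses from 47 μM to 0.79 nM for 48 h at 37°C. CellTiter-Glo One luminescence was normalised per plate to DMSO and cell-free wells, then fitted with a four-parameter log-logistic model over log10 doses. Area under the curve was taken from this fit by the trapezoidal rule, with curves above full viability scaled and curves failing quality control removed.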

NOMO1 [2] = experiment: as above
Summary of the method: as §1

P12-Ichikawa [3] = experiment: as above
Summary of the method: as §1

SEM cells [4] = experiment: cell viability relative to DMSO control; higher = less cytotoxic
Summary of the method: (§2)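 Viability was expressed as a per-plate percentage of DMSO wells, with cell-free wells as background. Leukemia cells (NOMO1 or SEM at 500 cells/well, P12-Ichikawa at 1000 cells/well) were adapted for at least four passages in each medium and seeded in 1536-well plates (5 μl). Library compounds in DMSO were pin-dosed over an 11-point threefold series from 47 μM to 0.79 nM, and CellTiter-Glo One luminescence was read after 48 h at 37°C.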

NOMO1 [5] = experiment: as above
Summary of the method: as §2

P12-Ichikawa [6] = experiment: as above
Summary of the method: as §2

COc1ccc(CC2SC(=O)NC2=O)cc1C(=O)NCc1ccc(C(F)(F)F)cc1 (stereo unspecified)
AUC of viability dose-response curve
Conditions	NOMO1 [2]	P12-Ichikawa [3]	SEM cells [1]
HPLM + 10% dialyzed FBS	416	430	381
RPMI 5 mM glucose + 10% FBS	415	396	439
RPMI 5 mM glucose + 10% dialyzed FBS	427	361	393

cell viability [%]
Conditions	NOMO1 [5]	P12-Ichikawa [6]	SEM cells [4]
HPLM + 10% dialyzed FBS, 0.000781 µM	84.2	85.3	75
HPLM + 10% dialyzed FBS, 0.00234 µM	83.3	84.7	82.5
HPLM + 10% dialyzed FBS, 0.00702 µM	90.7	90.5	79
HPLM + 10% dialyzed FBS, 0.0211 µM	86.1	96	82.5
HPLM + 10% dialyzed FBS, 0.0632 µM	79.4	88.3	73.6
HPLM + 10% dialyzed FBS, 0.19 µM	85.5	96.3	92.5
HPLM + 10% dialyzed FBS, 0.569 µM	99.3	93.8	76.9
HPLM + 10% dialyzed FBS, 1.71 µM	99.2	95	83.2
HPLM + 10% dialyzed FBS, 5.12 µM	83	88.2	95.9
HPLM + 10% dialyzed FBS, 15.4 µM	82.1	83.6	79.2
HPLM + 10% dialyzed FBS, 46.1 µM	86.3	86.9	40.4
RPMI 5 mM glucose + 10% FBS, 0.000781 µM	75.9	82.1	90
RPMI 5 mM glucose + 10% FBS, 0.00234 µM	88.2	78.3	86.8
RPMI 5 mM glucose + 10% FBS, 0.00702 µM	94	81	101
RPMI 5 mM glucose + 10% FBS, 0.0211 µM	88	87	84.1
RPMI 5 mM glucose + 10% FBS, 0.0632 µM	81.7	78.9	79.8
RPMI 5 mM glucose + 10% FBS, 0.19 µM	84.1	83.7	109
RPMI 5 mM glucose + 10% FBS, 0.569 µM	90.1	94.5	96.5
RPMI 5 mM glucose + 10% FBS, 1.71 µM	92	89.2	106
RPMI 5 mM glucose + 10% FBS, 5.12 µM	81.4	86.4	101
RPMI 5 mM glucose + 10% FBS, 15.4 µM	85.3	77.2	89.9
RPMI 5 mM glucose + 10% FBS, 46.1 µM	92	66.7	45.2
RPMI 5 mM glucose + 10% dialyzed FBS, 0.000781 µM	89.1	79.5	88
RPMI 5 mM glucose + 10% dialyzed FBS, 0.00234 µM	89.1	82.5	88.8
RPMI 5 mM glucose + 10% dialyzed FBS, 0.00702 µM	86.9	81.7	88.4
RPMI 5 mM glucose + 10% dialyzed FBS, 0.0211 µM	96	71.5	87.6
RPMI 5 mM glucose + 10% dialyzed FBS, 0.0632 µM	89	74.3	77.6
RPMI 5 mM glucose + 10% dialyzed FBS, 0.19 µM	93.4	74.2	98.8
RPMI 5 mM glucose + 10% dialyzed FBS, 0.569 µM	96.7	80.2	93.8
RPMI 5 mM glucose + 10% dialyzed FBS, 1.71 µM	86.3	75.1	97.4
RPMI 5 mM glucose + 10% dialyzed FBS, 5.12 µM	85.9	74.9	38.6
RPMI 5 mM glucose + 10% dialyzed FBS, 15.4 µM	79.3	69.3	83.6
RPMI 5 mM glucose + 10% dialyzed FBS, 46.1 µM	90.8	63.6	56.1

Oc1ccc(-c2nc(-c3ccncc3)c(-c3ccc(F)cc3)[nH]2)cc1
AUC of viability dose-response curve
Conditions	NOMO1 [2]	P12-Ichikawa [3]	SEM cells [1]
HPLM + 10% dialyzed FBS	366	388	289
RPMI 5 mM glucose + 10% FBS	412	427	251
RPMI 5 mM glucose + 10% dialyzed FBS	420	410	247

cell viability [%]
Conditions	NOMO1 [5]	P12-Ichikawa [6]	SEM cells [4]
HPLM + 10% dialyzed FBS, 0.000781 µM	99.7	115	83.4
HPLM + 10% dialyzed FBS, 0.00234 µM	113	112	90.6
HPLM + 10% dialyzed FBS, 0.00702 µM	122	118	102
HPLM + 10% dialyzed FBS, 0.0211 µM	117	114	107
HPLM + 10% dialyzed FBS, 0.0632 µM	125	124	104
HPLM + 10% dialyzed FBS, 0.19 µM	135	120	69.1
HPLM + 10% dialyzed FBS, 0.569 µM	147	130	42.4
HPLM + 10% dialyzed FBS, 1.71 µM	121	115	45.4
HPLM + 10% dialyzed FBS, 5.12 µM	19.1	64.3	7.43
HPLM + 10% dialyzed FBS, 15.4 µM	2.63	13	2.46
HPLM + 10% dialyzed FBS, 46.1 µM	1.72	5.07	0.872
RPMI 5 mM glucose + 10% FBS, 0.000781 µM	100	99.2	105
RPMI 5 mM glucose + 10% FBS, 0.00234 µM	106	99.7	86.9
RPMI 5 mM glucose + 10% FBS, 0.00702 µM	106	117	89.5
RPMI 5 mM glucose + 10% FBS, 0.0211 µM	112	111	93.6
RPMI 5 mM glucose + 10% FBS, 0.0632 µM	116	111	76.1
RPMI 5 mM glucose + 10% FBS, 0.19 µM	135	126	54.7
RPMI 5 mM glucose + 10% FBS, 0.569 µM	150	117	34.9
RPMI 5 mM glucose + 10% FBS, 1.71 µM	125	115	30.3
RPMI 5 mM glucose + 10% FBS, 5.12 µM	118	98.8	1.32
RPMI 5 mM glucose + 10% FBS, 15.4 µM	18.4	60.7	0.723
RPMI 5 mM glucose + 10% FBS, 46.1 µM	1.54	2.19	0.55
RPMI 5 mM glucose + 10% dialyzed FBS, 0.000781 µM	105	103	114
RPMI 5 mM glucose + 10% dialyzed FBS, 0.00234 µM	124	112	99.9
RPMI 5 mM glucose + 10% dialyzed FBS, 0.00702 µM	126	113	104
RPMI 5 mM glucose + 10% dialyzed FBS, 0.0211 µM	110	119	98.8
RPMI 5 mM glucose + 10% dialyzed FBS, 0.0632 µM	122	123	83
RPMI 5 mM glucose + 10% dialyzed FBS, 0.19 µM	133	113	48.4
RPMI 5 mM glucose + 10% dialyzed FBS, 0.569 µM	136	130	41.3
RPMI 5 mM glucose + 10% dialyzed FBS, 1.71 µM	128	116	32.8
RPMI 5 mM glucose + 10% dialyzed FBS, 5.12 µM	130	82.7	5.58
RPMI 5 mM glucose + 10% dialyzed FBS, 15.4 µM	36.8	46	1.19
RPMI 5 mM glucose + 10% dialyzed FBS, 46.1 µM	1.72	6.46	0.981
